Assay results taken from paper PMC8378262 (Journal of controlled release : official journal of the …, 2021).
Several values for one entry are separate records, joined by “and”; a condition that tells them apart may be missing. Equal values may be shown once. Read-outs that look alike come from different tables or passages of the source.

Key:
[1] = target: ROCK-II (Homo sapiens, UniProt O75116); experiment: Cell-free Rho-associated kinase activity; assay type: biochemical
[2] = system: PAH-SMC; experiment: Antiproliferative effects, Cell Counting Kit-8, PAH-SMC; assay type: cell-based, human
[3] = Pharmacokinetics in rat plasma after intravenous administration; assay type: in vivo, Sprague Dawley rats
[4] = target: T1, bactosomal human NADPH-CYP reductase (Homo sapiens, UniProt P16435); experiment: Enzymatic reduction assay of FasPRO, LC-MS/MS; assay type: in vitro ADME
T1 sequence (P16435 1-677): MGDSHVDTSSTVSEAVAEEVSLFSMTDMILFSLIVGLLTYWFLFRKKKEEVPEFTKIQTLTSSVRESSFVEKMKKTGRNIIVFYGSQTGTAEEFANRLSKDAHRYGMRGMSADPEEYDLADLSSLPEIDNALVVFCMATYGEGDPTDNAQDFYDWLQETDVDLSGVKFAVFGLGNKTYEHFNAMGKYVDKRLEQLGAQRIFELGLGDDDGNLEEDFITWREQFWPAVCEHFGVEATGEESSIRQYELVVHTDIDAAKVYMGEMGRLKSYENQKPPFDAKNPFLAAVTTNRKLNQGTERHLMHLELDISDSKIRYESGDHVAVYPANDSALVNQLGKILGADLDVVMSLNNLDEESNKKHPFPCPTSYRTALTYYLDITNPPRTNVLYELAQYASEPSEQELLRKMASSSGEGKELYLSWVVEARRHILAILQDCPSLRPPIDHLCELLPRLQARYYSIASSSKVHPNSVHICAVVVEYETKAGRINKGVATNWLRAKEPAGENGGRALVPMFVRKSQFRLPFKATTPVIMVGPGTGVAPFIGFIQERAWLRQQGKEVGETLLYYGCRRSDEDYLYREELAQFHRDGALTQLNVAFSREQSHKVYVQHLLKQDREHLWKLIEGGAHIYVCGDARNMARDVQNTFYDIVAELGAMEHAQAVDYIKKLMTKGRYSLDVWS

[5] = system: PAH-ECs; experiment: Bioreduction of FasPRO in cultured PAH-ECs; assay type: cell-based, human; conditions: 24 h incubation
[6] = system: cGMP; experiment: Intracellular cGMP; assay type: cell-based, human; conditions: for intracellular level of cGMP: PAH-SMCs, 0.1–0.001 μM
[7] = system: phospho-MYPT1; experiment: Myosin phosphatase-targeting protein phosphorylation; assay type: cell-based, human; conditions: PAH-ECs, 1.0 μM
[8] = system: cGMP; experiment: Intracellular cGMP; assay type: cell-based, human; conditions: PAH-ECs
[9] = system: N-SMC; experiment: Antiproliferative effects, Cell Counting Kit-8, N-SMC; assay type: cell-based, human
[10] = system: PAH-EC; experiment: cells; assay type: cell-based; conditions: Homo sapiens, 24 h
[11] = system: phospho-MYPT1; experiment: Myosin phosphatase-targeting protein phosphorylation; assay type: cell-based, human; conditions: PAH-SMCs, 1.0 μM, 24 h
[12] = system: PAH-SMCs; experiment: Bioreduction of FasPRO in cultured PAH-SMCs; assay type: cell-based, human
[13] = Homo sapiens, 24 h, read-out: PAH-SMC (IC50) Normoxia, normoxia, 24 h treatment
[14] = Homo sapiens, 24 h, read-out: N-SMC (IC50) Normoxia
[15] = read-out: PAH-EC (IC50) Hypoxia
[16] = read-out: PAH-EC (IC50) Normoxia
[17] = male, Sprague-Dawley, rat, plasma, iv, 3 mg/kg

ROCK-II, sequence (O75116 whole entry, species assumed): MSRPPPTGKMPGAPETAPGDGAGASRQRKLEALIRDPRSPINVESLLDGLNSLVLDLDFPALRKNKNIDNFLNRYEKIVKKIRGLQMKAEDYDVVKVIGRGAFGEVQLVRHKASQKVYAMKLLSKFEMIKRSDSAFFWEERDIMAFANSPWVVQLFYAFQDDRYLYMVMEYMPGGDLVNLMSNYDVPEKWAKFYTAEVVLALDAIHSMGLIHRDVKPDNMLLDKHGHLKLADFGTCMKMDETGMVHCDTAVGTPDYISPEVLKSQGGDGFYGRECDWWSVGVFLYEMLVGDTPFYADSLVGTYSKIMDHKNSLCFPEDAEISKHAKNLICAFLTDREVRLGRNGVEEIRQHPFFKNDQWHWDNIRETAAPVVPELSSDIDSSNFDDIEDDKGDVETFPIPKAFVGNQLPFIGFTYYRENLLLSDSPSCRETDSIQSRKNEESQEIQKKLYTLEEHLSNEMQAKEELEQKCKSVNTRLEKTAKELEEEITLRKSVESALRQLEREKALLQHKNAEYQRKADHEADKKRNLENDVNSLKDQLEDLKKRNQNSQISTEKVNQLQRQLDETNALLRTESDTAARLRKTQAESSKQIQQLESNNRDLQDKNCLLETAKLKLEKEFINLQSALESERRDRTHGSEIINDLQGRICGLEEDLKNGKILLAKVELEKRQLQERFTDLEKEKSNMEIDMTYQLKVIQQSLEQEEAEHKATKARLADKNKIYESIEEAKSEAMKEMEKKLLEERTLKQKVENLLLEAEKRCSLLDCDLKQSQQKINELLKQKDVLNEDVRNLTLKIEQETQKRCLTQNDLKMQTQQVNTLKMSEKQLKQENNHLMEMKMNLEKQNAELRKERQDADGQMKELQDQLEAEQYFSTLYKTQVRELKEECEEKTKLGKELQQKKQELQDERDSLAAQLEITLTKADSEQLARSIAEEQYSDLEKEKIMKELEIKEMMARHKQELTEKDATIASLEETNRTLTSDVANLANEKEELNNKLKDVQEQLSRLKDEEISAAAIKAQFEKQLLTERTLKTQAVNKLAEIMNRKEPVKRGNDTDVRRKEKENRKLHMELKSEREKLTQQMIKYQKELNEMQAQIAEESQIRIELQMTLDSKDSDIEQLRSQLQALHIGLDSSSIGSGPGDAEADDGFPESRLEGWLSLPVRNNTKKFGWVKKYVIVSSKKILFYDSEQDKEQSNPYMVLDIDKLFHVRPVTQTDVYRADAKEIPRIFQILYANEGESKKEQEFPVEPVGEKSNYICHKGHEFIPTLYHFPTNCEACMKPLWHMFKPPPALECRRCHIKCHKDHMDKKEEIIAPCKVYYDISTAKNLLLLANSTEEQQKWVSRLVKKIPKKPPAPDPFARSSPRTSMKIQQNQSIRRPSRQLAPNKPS

| SMILES | intracellular level of cGMP ([6]; hypoxia) | intracellular level of cGMP ([6]; normoxia) | IC50 [2, 13] | hypoxia-driven phosphorylation of MYPT1 [7] | intracellular level of cGMP ([8]; hypoxia) | intracellular level of cGMP ([8]; normoxia) | IC50 [9, 14] | IC50 [10, 15] | IC50 [10, 16] | AUC(0-inf) [3, 17] | C0 [3, 17] | Vd [3, 17] | clearance [3, 17] | hypoxia-driven phosphorylation of MYPT1 [11] | also measured |
| --- | --- | --- | --- | --- | --- | --- | --- | --- | --- | --- | --- | --- | --- | --- | --- |
| O=c1[nH]ccc2c(S(=O)(=O)N3CCCNCC3)cccc12 [FasOH, reference compound] | – | – | – | – | – | – | – | – | – | – | – | – | – | – | inhibition of the kinase activity of ROCK-II (comparison in words) ([1]; 1.0 mU ROCK-II, 10 μM ATP): equal potency; IC50 ([2]; Homo sapiens, 24 h, read-out: PAH-SMC (IC50) Hypoxia): 10.3 ± 2.6 µM; IC50 ([2]; Homo sapiens, 24 h, read-out: PAH-SMC (IC50) Normoxia): 6.9 µM; maximum plasma concentration (Cmax) of FasOH as share of that of the parent drug ([3]; rats given intravenous fasudil 3 mg/kg): 37~52% |
| O=[N+]([O-])c1ccc(COc2nccc3c(S(=O)(=O)N4CCCNCC4)cccc23)cc1 [FasPRO, 5-((1,4-diazepan-1-yl)sulfonyl)-1-((4-nitrobenzyl)oxy)isoquinoline] | dose-dependently increased | did not improve cGMP secretion | 53.5 µM | reversed the process | dose-dependently increased | did not improve cGMP secretion | 248 ± 28.9 µM | 25.4 ± 4.8 µM | 2720 ± 50.9 µM | 951 ± 137 ng·h/mL | 471 ± 122 ng/mL | 10.1 ± 4 L/kg | 18.3 mL/min/kg | reversed the process | prodrug converted into FasOH or fasudil ([4]; hypoxia (0.1% O2), after 24 h of reaction): More than 60%; reduction of FasPRO by the reductase ([4]; normoxia, any of the time points): did not occur; reduction in ROCK-II kinase activity on addition of the 4-nitrobenzyl group to the hydroxyl group of FasOH ([1]; relative to FasOH): 15 fold; content of FasPRO in cells ([5]; hypoxia, versus normoxia): decreased; fragmentation of FasPRO in cells ([5]; normoxia): did not undergo significant fragmentation; concentrations at which an antiproliferative effect was observed ([2]; normoxia, cells not given): > 100 µM; phospho-MYPT-1 level ([7]; normoxia): did not cause any changes; IC50 ([9]; Homo sapiens, 24 h, read-out: N-SMC (IC50) Hypoxia): 1.04 ± 0.1 µM; terminal half-life of FasPRO relative to that of fasudil ([3]; Sprague-Dawley rats, intravenous, 3 mg/kg): 36 fold and ~ 36 fold; half-life ([3]; male, Sprague-Dawley, rat, plasma, iv, 3 mg/kg, t1/2, Sprague-Dawley rats): > 7 h; fasudil in the blood of FasPRO-treated rats ([3]; remaining two of four rats, FasPRO iv 3 mg/kg): not detectable; phospho-MYPT-1 level ([11]; normoxia): did not cause any changes; activation of FasPRO ([12]; 0.1% O2): activated; activation of FasPRO ([12]; 1% and 10% O2): not at 1% and 10% O2; fragments of FasPRO after bioreduction in cell lysate ([12]; 12 h, hypoxia): FasOH (major fragment) or fasudil (minor fragment); content of FasPRO in cells ([12]; hypoxia, 24 h incubation, versus normoxia): decreased; fragmentation of FasPRO in cells ([12]; normoxia, 24 h incubation): did not undergo significant fragmentation |
| O=S(=O)(c1cccc2cnccc12)N1CCCNCC1 [Fasudil, reference compound] | dose-dependently increased | dose-dependently increased | 4.9 µM | reversed the process | dose-dependently increased | dose-dependently increased | 2.8 ± 0.6 µM | 34.1 ± 5.9 µM | 16 ± 1.2 µM | 363 ± 54.1 ng·h/mL | 1360 ± 368 ng/mL | 0.9 ± 0.2 L/kg | 46.7 mL/min/kg | reversed the process | increase in cGMP levels in PAH-SMCs compared to PAH-ECs ([6]; fasudil preincubation): 5 fold; IC50 ([2]; read-out: PAH-SMC (IC50) Normoxia, normoxia, 24 h treatment): 4.95 ± 1.3 µM; IC50 ([9]; read-out: N-SMC (IC50) Hypoxia, hypoxia (0.1% O2), 24 h treatment): 1.68 ± 0.5 µM |
